# Entries after “also recorded” stand apart in the source; their conditions may differ. Where two headings read alike, the source gives them in different places.
# Key:
# SXR [1] = assay: Activation of SXR in transfection-based assays; details: for SXR activation of DR-3, DR-4 and DR-5 elements: series of transfections
# Experimental: To characterize its response properties, a large variety of steroids, including intermediate and major products of known steroid biosynthetic pathways were tested.
# GR = biological target: T1, GR (Homo sapiens, UniProt P04150); assay: Activity of corticosterone catabolites on GR; type: cell-based; details: reduced or hydroxylated corticosterone derivatives
# T1 sequence (P04150 1-777): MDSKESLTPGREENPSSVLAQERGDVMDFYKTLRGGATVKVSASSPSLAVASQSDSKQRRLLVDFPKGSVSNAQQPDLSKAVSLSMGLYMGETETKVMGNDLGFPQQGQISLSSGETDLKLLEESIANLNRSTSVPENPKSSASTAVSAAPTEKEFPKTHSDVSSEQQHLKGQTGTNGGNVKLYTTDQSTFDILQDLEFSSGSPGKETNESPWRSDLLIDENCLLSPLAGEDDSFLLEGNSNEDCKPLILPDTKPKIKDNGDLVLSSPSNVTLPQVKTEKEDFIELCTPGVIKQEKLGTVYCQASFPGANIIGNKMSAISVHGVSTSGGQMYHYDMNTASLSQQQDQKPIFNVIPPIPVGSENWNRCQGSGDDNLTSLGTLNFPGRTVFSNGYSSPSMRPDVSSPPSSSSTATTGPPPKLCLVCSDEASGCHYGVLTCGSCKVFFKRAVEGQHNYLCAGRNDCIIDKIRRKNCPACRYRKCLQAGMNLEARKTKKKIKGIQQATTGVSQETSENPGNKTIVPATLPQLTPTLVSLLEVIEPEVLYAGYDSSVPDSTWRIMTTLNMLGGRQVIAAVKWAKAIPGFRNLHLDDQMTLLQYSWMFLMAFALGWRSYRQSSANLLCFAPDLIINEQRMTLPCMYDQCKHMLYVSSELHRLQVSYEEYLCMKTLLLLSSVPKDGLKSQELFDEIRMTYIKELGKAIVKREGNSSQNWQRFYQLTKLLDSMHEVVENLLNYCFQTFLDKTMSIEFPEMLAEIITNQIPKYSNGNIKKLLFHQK
# SXR [2] = biological target: T2, SXR (Homo sapiens, UniProt O75469); assay: Activation of SXR by thiazolidinediones in hepatocyte cultures and transgenic animals
# T2 sequence (O75469 1-434): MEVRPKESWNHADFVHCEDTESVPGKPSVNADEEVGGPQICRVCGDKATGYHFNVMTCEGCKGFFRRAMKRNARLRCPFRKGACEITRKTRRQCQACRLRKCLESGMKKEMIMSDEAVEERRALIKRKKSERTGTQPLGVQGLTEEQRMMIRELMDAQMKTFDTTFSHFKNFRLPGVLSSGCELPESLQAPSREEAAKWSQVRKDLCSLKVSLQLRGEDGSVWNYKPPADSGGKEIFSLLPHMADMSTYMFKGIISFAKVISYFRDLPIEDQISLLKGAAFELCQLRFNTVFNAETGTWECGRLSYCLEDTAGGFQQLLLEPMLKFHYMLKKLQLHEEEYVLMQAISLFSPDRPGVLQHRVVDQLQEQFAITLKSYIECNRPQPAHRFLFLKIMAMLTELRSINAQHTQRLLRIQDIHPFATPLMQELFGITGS
# Experimental: (§1) All compounds were purchased from Sigma.
# (§2) The animals were allowed free access to food and water at all times. […] When necessary, mice were treated with a single intraperitoneal injection of DEX (50 mg/kg), PCN (40 mg/kg), or CTZ (50 mg/kg).
# PXR [3] = biological target: T3, PXR (Mus musculus, UniProt O54915); details: tk-UGT1A6/DR-3-Luc, CV-1 cells
# T3 sequence (O54915 1-431): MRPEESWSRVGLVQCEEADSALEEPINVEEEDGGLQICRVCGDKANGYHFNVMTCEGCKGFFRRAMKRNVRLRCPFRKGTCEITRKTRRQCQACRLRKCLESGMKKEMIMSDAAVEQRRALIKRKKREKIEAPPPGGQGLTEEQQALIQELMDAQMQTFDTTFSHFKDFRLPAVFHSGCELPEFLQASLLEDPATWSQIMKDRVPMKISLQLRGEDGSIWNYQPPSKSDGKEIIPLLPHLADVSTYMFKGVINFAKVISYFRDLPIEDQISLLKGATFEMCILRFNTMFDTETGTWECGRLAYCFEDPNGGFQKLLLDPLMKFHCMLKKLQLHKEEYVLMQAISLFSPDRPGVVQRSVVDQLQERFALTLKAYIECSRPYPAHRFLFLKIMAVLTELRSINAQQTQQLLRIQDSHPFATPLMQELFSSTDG
# Excerpt: (§3) The reporter gene comprises a thymadine kinase (TK) linked to UGT1A6/DR-3 linked to a luciferace (LUC).
# (§4) In an exemplary assay, a luciferase reporter gene containing the UGT1A6/DR-3 upstream of a minimal thymidine kinase (tk) promoter was constructed and transfected into monkey kidney CV-1 cells together with expression vectors for SXR, PXR, or CAR.
# (§5) In FIG. 2, the tk-UGT1A6/DR3-Luc construct comprises a UGT inverted or direct repeat and/or a nuclear receptor binding site such that activation of the response element results in transcription of UGT. […] The response element can also comprise an inverse repeat of a suitable half site separated by a 6 nucleotide spacer, or an inverse repeat of a variant thereof, separated by a 6 nucleotide spacer.
# SXR [4] = biological target: T2, SXR
# Excerpt: as §3, §4, §5
# [5] = tested on: rat CYP3A23 gene cellular promoter
# Experimental: (§6) The PCR-amplified sequences and target mutagenesis were confirmed by DNA sequencing.
# as §1
# The above notion would predict: (1) The SXR/PXR response element is essential for the activation of CYP3A genes; and (2) The response elements of SXR and PXR are interchangeable. Therefore, mutagenesis analysis was performed on the promoter of the rat CYP3A23 gene to examine these predictions.
# [6] = tested on: human CYP3A4 gene cellular promoter; details: hepatocytes
# Excerpt: as §6, §1
# CYP3A11 gene = details: mouse, in vivo
# Experimental: as §2
# To examine the drug response of the endogenous liver CYP3A11 gene, animals were treated with single dose of compounds 24 h before sacrifice, and the CYP3A11 gene expression was evaluated by Northern blot analysis on liver total RNA. […] To detect specific transcripts, [^32P]-cDNA probes labeled by Random Primer Labeling Kit (Boringher) were hybridized to the membranes. The probe used to detect transgene contains both the SXR cDNA and the SV40 sequences. […] The filters were subsequently stripped and rehybridized with a murine glyceraldehyde-3-phosphate dehydrogenase (GAPDH) cDNA probe for RNA loading normalization.
# Tissues were harvested 24 h later and subjected to Northern blot analysis. Membranes were probed with CYP3A11 cDNA probe, and were subsequently stripped and re-probed with GAPDH and transgene specific probes.
# PXR [7] = biological target: T3, PXR; assay: Activation of mouse receptor PXR by the panel of compounds
# CAR = biological target: T4, CAR (Mus musculus, UniProt O35627); assay: tk-UGT1A6/DR-3 luciferase reporter transfected into CV-1 cells with CAR expression vector; type: cell-based; details: tk-UGT1A6/DR-3-Luc
# T4 construct: expressed in transfected cells; host or cells: monkey kidney CV-1 cells
# T4 sequence (O35627 1-358): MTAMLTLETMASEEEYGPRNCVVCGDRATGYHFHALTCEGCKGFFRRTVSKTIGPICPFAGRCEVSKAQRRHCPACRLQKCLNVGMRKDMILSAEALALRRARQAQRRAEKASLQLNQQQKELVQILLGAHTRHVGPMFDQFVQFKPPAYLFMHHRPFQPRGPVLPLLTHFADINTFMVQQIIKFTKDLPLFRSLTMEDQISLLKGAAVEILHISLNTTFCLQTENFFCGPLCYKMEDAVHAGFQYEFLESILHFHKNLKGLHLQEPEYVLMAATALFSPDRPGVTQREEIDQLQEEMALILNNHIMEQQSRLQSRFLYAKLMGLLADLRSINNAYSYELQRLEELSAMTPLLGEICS
# Excerpt: as §3, §4, §5
# PXR [8] = biological target: T3, PXR
# [9] = clinical trials, 2510 patients; alanine aminotransferase level > three times the upper limit of normal; cited from earlier work
# [10] = transfection-based assays, steroids tested
structure (smiles),measurement,setting,value
C[C@]12CCC(=O)C[C@@H]1CC[C@@H]1[C@@H]2[C@@H](O)C[C@]2(C)[C@@H](C(=O)CO)CC[C@@H]12 [5α],activation of SXR by products of steroid catabolism,SXR [1],effective SXR activators
same,activity on GR,GR,slightly active
C[C@]12CCC(=O)C[C@H]1CC[C@@H]1[C@@H]2[C@@H](O)C[C@]2(C)[C@@H](C(=O)CO)CC[C@@H]12 [5β],activation of SXR by products of steroid catabolism,SXR [1],effective SXR activators
same,activity on GR,GR,completely inactive
C[C@]12C[C@H](O)[C@H]3[C@@H](C[C@@H](O)C4=CC(=O)CC[C@@]43C)[C@@H]1CC[C@@H]2C(=O)CO [6β-hydroxy corticosterone],activation of SXR by products of steroid catabolism,SXR [1],virtually inactive; also recorded: virtual inactivity
same,activity on GR,GR,slightly active
"CN(CCOc1ccc(CC2SC(=O)NC2=O)cc1)c1ccccn1 (stereo not shown) [BRL, Rosiglitazone]",activation of SXR by TZDs,SXR [2]; hepatocyte cultures and transgenic animals,fail to activate SXR
"Clc1ccccc1C(c1ccccc1)(c1ccccc1)n1ccnc1 [CTZ, clotrimazole]",PXR-mediated UGT activation,PXR [3],activation was seen
same,activation of the UGT reporter by SXR,SXR [4],Significant activation
same,PXR and/or SXR-mediated activation of mutated CYP3A23 promoter,[5],abolished
same,inducibility of CYP3A23 promoter with DR-3 replaced by IR-6,[5],successfully rescue the inducibility
same,induction of CYP3A23 cellular promoter reporter,[5],significant induction
"CC(=O)[C@H]1[C@H](C#N)C[C@H]2[C@@H]3CC=C4C[C@@H](O)CC[C@]4(C)[C@H]3CC[C@@]21C [PCN, pregnenolone-16-carbonitrile]",PXR-mediated UGT activation,PXR [3],activation was seen
same,activation of SXR by compounds known to induce CYP3A4,SXR [1],weak activator
same,"SXR activation of DR-3, DR-4 and DR-5 elements",SXR [1],among the best activators
same,activation of SXR,SXR [1]; [10],activated
same,PXR and/or SXR-mediated activation of mutated CYP3A23 promoter,[5],abolished
same,activation of CYP3A23 cellular promoter reporter,[5],most potent and efficacious tested activators
same,inducibility of CYP3A23 promoter with DR-3 replaced by IR-6,[5],successfully rescue the inducibility
same,induction of CYP3A23 cellular promoter reporter,[5],remained unchanged
same,activation of CYP3A4 cellular promoter reporter,[6],can be activated
same,induction of liver CYP3A11 expression,CYP3A11 gene,equally efficacious
same,activation of PXR,PXR [7],preferentially activated
"Clc1cnc(Oc2ccc(Oc3ncc(Cl)cc3Cl)cc2)c(Cl)c1 [TCPOBOP, 1,4-bis[2-(3,5-dichloropyridyloxy)] benzene]",effect on CAR activation of UGT reporter,CAR,potentiated
C[C@@]12CCC[C@H]1[C@@H]1CC[C@H]3C[C@@H](O)CC[C@]3(C)[C@H]1CC2 [androstanol],effect on CAR activation of UGT reporter,CAR,inhibited
"C[C@]12CC[C@@H]3c4ccc(O)cc4CC[C@H]3[C@@H]1CC[C@@H]2O [estradiol, 17β-estradiol]",activation of SXR by compounds known to induce CYP3A4,SXR [1],most potent activators
same,"SXR activation of DR-3, DR-4 and DR-5 elements",SXR [1],among the best activators
same,activation of SXR,SXR [1]; [10],remarkably effective activators
same,induction of CYP3A23 cellular promoter reporter,[5],significant induction
same,activation of PXR,PXR [8],similarly activated
C[C@]12CC[C@H]3[C@@H](CCC4=CC(=O)CC[C@@]43C)[C@@H]1CC[C@@H]2O [testosterone],activation of SXR,SXR [1],activated
same,activation of PXR,PXR [7],similarly activated
Cc1c(C)c2c(c(C)c1O)CCC(C)(COc1ccc(CC3SC(=O)NC3=O)cc1)O2 (stereo not shown) [troglitazone],activation of SXR by TZDs,SXR [2],activate SXR
same,"troglitazone-induced hepatotoxicity, share of patients",[9],1.9%

# From patent US7413853B2, “Modulation of metabolism of steroids and xenobiotics” (The Salk Institute for Biological Studies, priority 2001, dated 2008)
